Assay results from US8598339B2, “Withanolide isolated from Physalis longifolia and analogs and methods of use thereof” (University of Kansas, priority 2011, dated 2013).

What was measured:
melanoma cells B16F10 = experiment: MTS cell viability assay, B16F10; assay type: cell-based; conditions: Mus musculus; for IC50: B16-F10, Table 1, 72-hour treatment; for IC90: B16-F10, Table 2
How it was run: (§1)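 JMAR and MDA1986 head and neck SCC cells and B16F10 melanoma cells grown in DMEM with 10% heat-inactivated FBS at 37 °C, 5% CO2, seeded at 1-2×10^4 cells/mL. Viability measured by MTS after 72-hour compound treatment, 3-hour reagent incubation, formazan absorbance at 490 nm.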

[1] = test system: human melanoma SKMEL28 cells; experiment: MTS cell viability assay, SKMEL28; assay type: cell-based; conditions: Homo sapiens; for IC50: SK-MEL-28, 72 h; for IC90: SK-MEL-28, Table 2
How it was run: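 SKMEL28 melanoma cells in DMEM with 10% heat-inactivated FBS were seeded at 1-2×10^4 cells/mL and exposed to withanolides for 72 h. Viability was measured by MTS reagent, incubated 3 h at 37 °C, with formazan absorbance read at 490 nm.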

[2] = test system: squamous cell carcinoma of head and neck cells MDA1986; experiment: MTS cell viability assay, MDA1986; assay type: cell-based; conditions: Table 1, 72-hour treatment
How it was run: as §1

[3] = test system: squamous cell carcinoma of head and neck cells JMAR; experiment: MTS cell viability assay, JMAR; assay type: cell-based; conditions: for IC50: Table 1, 72-hour treatment; for IC90: Table 2
How it was run: as §1

[4] = test system: human carcinoid cells NCI-H727; experiment: MTS cell viability assay, NCI-H727; assay type: cell-based; conditions: Table 1, NCI-H727, 72-hour treatment, read-out: IC50
Method: (§2) Human carcinoid cells, NCI-H727 (ATCC, Manassas, Va.), were cultured under standard conditions. Squamous cell carcinoma of head and neck cells, MDA1986 (Myers, et al. (2002) Clin. Cancer Res. 8:293) and JMAR (Swan, et al. (2003) Oral Oncol. 39:648-55); and melanoma cells lines B16F10 (ATCC, Manassas, Va.) and SKMEL28 (CLS, Eppelheim, Germany) were cultured in DMEM medium supplemented with 10% heat-inactivated fetal bovine serum (Sigma-Aldrich, St. Louis, Mo.), 1×MEM-essential amino acid, 1×MEM vitamin, and penicillin/streptomycin (Sigma-Aldrich, St. Louis, Mo.) in a humid environment of 5% CO2 at 37° C. Activity of withanolides against DRO81-1 and TT medullary thyroid cancer cells was also determined.
(§3) Cells were cultured in 96 well plates at a concentration of 1-2×10^4 cells/mL. Cell viability was assessed with the nonradioactive cell proliferation MTS assay using Cell Titer 96AQUEOUS One Solution Reagent (PROMEGA, Madison, Wis.), according to the manufacturer's instruction. After a 72-hour treatment, 20 μL of Cell Titer 96AQUEOUS One Solution Reagent were added to each well and incubated for 3 hours at 37° C. 5% CO2, and formazan absorbance was measured at 490 nm.

MRC-5 = experiment: MTS cell viability assay, MRC-5; assay type: cell-based; conditions: Homo sapiens, MRC5, Table 1, 72-hour treatment
[5] = test system: DRO81-1 medullary thyroid cancer cells; experiment: MTS cell viability assay, DRO81-1; assay type: cell-based; conditions: Table 1; DRO81-1; 72-hour treatment; read-out: IC50
Method: as §2, §3

UMSCC-2 HNSCC cells = experiment: Annexin V/PI staining and flow cytometry, UMSCC-2; assay type: cell-based
Method: (§4) In similar analysis with X003, 50% of UMSCC-2 HNSCC cells underwent apoptosis (early and late) at 1 μM, while 90% of cells underwent apoptosis at 3 μM. Apoptosis with 1 μM X003 was confirmed with PARP cleavage and caspase 3 activation in NCI-H727 cells.

[6] = In vitro metabolism, dog liver microsomes; assay type: in vitro ADME, dog (Beagle); conditions: 1.0E-06 M
Method: The in vitro metabolism of […], as compared to known reference compounds, was analyzed using liver microsomes from human, dog (Beagle), rat (Sprague-Dawley) and mouse (CD-1). […] Results are from two independent tests.

SUP-B15 Ph+ ALL cells = experiment: MTS assay, SUP-B15; assay type: cell-based; conditions: for IC50: Homo sapiens, SUP-B15
Method: (§5) Cell proliferation was analyzed using MTS assay and Trypan Blue exclusion. Annexin V-FITC/Propidium Iodide flow cytometry was used to analyze the induction of apoptosis in SUP-B15 cells after treatment with anolides. Cell cycle analysis was performed using propidium iodide flow cytometry. Modulation of BCR-ABL and downstream effector proteins was determined by western blot analysis. Syngery between withanolides and TKIs was evaluated using MTS viability to calculate combination indices. Apoptotic synergy was evaluated using Annexin V/PI.

normal MRC-5 fibroblasts = experiment: MTS assay, normal MRC-5 fibroblasts (Example 7); assay type: cell-based; conditions: Homo sapiens, MRC5
Method: as §5

SUP-B15 cells [7] = experiment: Trypan blue exclusion assay, SUP-B15; assay type: cell-based; conditions: 5×, 2×, 1×, 0.5×IC50
Method: as §5, with “Syngery” left out

SUP-B15 cells [8] = experiment: Annexin V/propidium iodide apoptosis, SUP-B15; assay type: cell-based; conditions: 48 hour; approximately 10×IC50 (Withaferin A, X001), 4×IC50 (X003)
Method: as §5
At no concentrations was the population of cells in necrosis significant.

SUP-B15 cells [9] = experiment: Cell cycle analysis by PI flow cytometry, SUP-B15; assay type: cell-based
Method: as §5

SUP-B15 Ph+ALL cells = experiment: Combination with imatinib, MTS viability, SUP-B15; assay type: cell-based; conditions: 16 combinations
Method: as §5

MDA-MB-468 = experiment: MTS assay, MDA-MB-468; assay type: cell-based
Method: Cell proliferation was analyzed using MTS assay.

BT20 cells = experiment: Clonogenic assay, BT20; assay type: cell-based; conditions: 1-2 μM; treated 24 hours, cultured two weeks
HS766T = experiment: Pancreatic cancer cell viability, HS766T; assay type: cell-based; conditions: read-out: IC50
Method: (§6) The activity of the withanolides of this invention were tested in pancreatic cancer cells. […] Moreover, IC50 values were determined for these compounds (Table 14).

Mia PaCa-2 = experiment: Pancreatic cancer cell viability, Mia PaCa-2; assay type: cell-based; conditions: Homo sapiens, MIA PaCa2, read-out: IC50
Method: as §6

NCI-H727 cells = experiment: PARP cleavage and caspase 3 activation, NCI-H727; assay type: cell-based; conditions: 1 μM
Method: as §4

[10] = Table 3, treated for 72 hours, NA = no activity

Structure (SMILES)	IC50 (melanoma cells B16F10)	IC90 (melanoma cells B16F10)	IC50 ([1]; Table 1, 72-hour treatment)	IC50 [1, 10]	IC90 [1]	IC50 [2]	IC50 [3]	IC90 [3]	IC50 [4]	IC50 (MRC-5)	IC50 [5]	IC50 (SUP-B15 Ph+ ALL cells)	IC50 (normal MRC-5 fibroblasts)	cell death at 24 hours, trypan blue exclusion (SUP-B15 cells [7])	induction of apoptosis (SUP-B15 cells [8])	synergy with imatinib (SUP-B15 Ph+ALL cells)	IC50 (HS766T)	IC50 (Mia PaCa-2)	other results
CC1=C(CO)C(=O)O[C@@H]([C@@H](C)C2CC[C@H]3[C@@H]4C[C@H]5O[C@]56[C@@H](O)C=CC(=O)[C@]6(CO)[C@H]4CC[C@]23C)C1 (stereo partly drawn) [Compound X001]	0.92 µM	2.64 µM	5.06 µM	4.71 µM	2.14 µM	3.34 µM	5.32 µM	4.9 µM	1.68 µM	12.7 µM	2.29 µM	0.35 µM	8.2 µM	caused death at 24 hours with 2× and 5×IC50 values	almost all cells were in either late or early apoptosis	showed synergy at all concentrations tested	1.3 µM	0.8 µM	cells undergoing apoptosis (early and late) (UMSCC-2 HNSCC cells; 5 μM, 24-hour exposure, HNSCC cells): 18%; Mean % Parent Compound Remaining [6]: 28%; Cell Cycle (%) G0/G1 (SUP-B15 cells [9]; 200 nM, 48 hour treatment): 53.1%; Cell Cycle (%) G2/M (SUP-B15 cells [9]; 200 nM, 48 hour treatment): 26.4%; Cell Cycle (%) S (SUP-B15 cells [9]; 200 nM, 48 hour treatment): 19.5%; Cell Cycle (%) G0/G1 (SUP-B15 cells [9]; 400 nM, 48 hour treatment): 54.6%; Cell Cycle (%) G2/M (SUP-B15 cells [9]; 400 nM, 48 hour treatment): 27.1%; Cell Cycle (%) S (SUP-B15 cells [9]; 400 nM, 48 hour treatment): 18.3%; Cell Cycle (%) G0/G1 (SUP-B15 cells [9]; 800 nM, 48 hour treatment): 47.5%; Cell Cycle (%) G2/M (SUP-B15 cells [9]; 800 nM, 48 hour treatment): 42.2%; Cell Cycle (%) S (SUP-B15 cells [9]; 800 nM, 48 hour treatment): 10.3%; Cell Cycle (%) G0/G1 (SUP-B15 cells [9]; 1600 nM, 48 hour treatment): 39.9%; Cell Cycle (%) G2/M (SUP-B15 cells [9]; 1600 nM, 48 hour treatment): 44.5%; Cell Cycle (%) S (SUP-B15 cells [9]; 1600 nM, 48 hour treatment): 15.7%; Cell Cycle (%) G0/G1 (SUP-B15 cells [9]; 3200 nM, 48 hour treatment): 49.9%; Cell Cycle (%) G2/M (SUP-B15 cells [9]; 3200 nM, 48 hour treatment): 31.5%; Cell Cycle (%) S (SUP-B15 cells [9]; 3200 nM, 48 hour treatment): 18.6%; Log ECF (MDA-MB-468): 0.32; colony formation (BT20 cells): not as potent
CC(=O)OCC1=C(C)C[C@H]([C@@H](C)C2CC[C@H]3[C@@H]4C[C@H]5O[C@]56[C@@H](OC(C)=O)C=CC(=O)[C@]6(COC(C)=O)[C@H]4CC[C@]23C)OC1=O (stereo partly drawn) [Compound X003, 4,19,27-triacetyl X001]	0.067 µM	0.33 µM	0.54 µM	0.221 µM	0.36 µM	0.91 µM	0.16 µM	1.3 µM	0.32 µM	0.58 µM	0.34 µM	0.048 µM	1.5 µM	significant cell death at 24 hours at IC50 values	almost all cells were in either late or early apoptosis	showed synergy at all concentrations tested	0.4 µM	0.35 µM	cells undergoing apoptosis (early and late) (UMSCC-2 HNSCC cells; 1 μM, UMSCC-2): 50%; cells undergoing apoptosis (UMSCC-2 HNSCC cells; 3 μM, UMSCC-2): 90%; apoptosis by PARP cleavage and caspase 3 activation (NCI-H727 cells): confirmed; Fold Difference (SUP-B15 Ph+ ALL cells; MRC-5 vs SUP-B15 IC50): 31X; Cell Cycle (%) G0/G1 (SUP-B15 cells [9]; 15 nM): 57.4%; Cell Cycle (%) G2/M (SUP-B15 cells [9]; 15 nM): 20.7%; Cell Cycle (%) S (SUP-B15 cells [9]; 15 nM): 21.9%; Cell Cycle (%) G0/G1 (SUP-B15 cells [9]; 30 nM): 66.4%; Cell Cycle (%) G2/M (SUP-B15 cells [9]; 30 nM): 24%; Cell Cycle (%) S (SUP-B15 cells [9]; 30 nM): 9.5%; Cell Cycle (%) G0/G1 (SUP-B15 cells [9]; 60 nM): 62.5%; Cell Cycle (%) G2/M (SUP-B15 cells [9]; 60 nM): 22.2%; Cell Cycle (%) S (SUP-B15 cells [9]; 60 nM): 15.3%; Cell Cycle (%) G0/G1 (SUP-B15 cells [9]; 120 nM): 52.6%; Cell Cycle (%) G2/M (SUP-B15 cells [9]; 120 nM): 30%; Cell Cycle (%) S (SUP-B15 cells [9]; 120 nM): 17.4%; combination index (CI) with imatinib (SUP-B15 Ph+ALL cells; 0.25×-1×IC50 of each drug): 0.136
